Assay: storage stability of the radioligand in solution
Format: physicochemical
Conditions: trace hcl; stored at -20° C. as a solution in 15% methanol/water containing a trace of hydrochloric acid; read-out: stability, loss of radiochemical purity

degraded at 730 h: < 0.5%
SMILES: CC(C)(N)C(=O)N[C@H](COCc1ccccc1)C(=O)N1CCC2(CC1)CN([35S](C)(=O)=O)c1ccccc12 [[^35 S]-radioligand, [^35 S]N-[1(R)-[(1,2-Dihydro-1-methanesulfonylspiro[3H-indole-3,4'-piperdin]-1'-yl)carbonyl]-2-(phenylmethyloxy)ethyl]-2-amino-2-methylpropanamide]

Reference: US5830433A, “Radiolabeled growth hormone secretagogue” (Merck & Co., Inc., priority 1996, dated 1998)
